Measured values published in ChEMBL document CHEMBL3301361, “Experimental in vitro DMPK and physicochemical data on a set of publicly disclosed compounds”.
Converted amounts (≈) assume the structure as drawn.

Experiments:
[1] = human, plasma, 5 h
[2] = rat, plasma, 5 h
[3] = physchem; conditions: octan-1-ol/water, pH 7.4, LogD7.4
[4] = in vitro; conditions: human, plasma, PPB
[5] = in vitro; conditions: mouse, plasma
[6] = in vitro; conditions: SD, HW or BN, rat, plasma
[7] = physchem
[8] = physchem; remark: listed apart in the source
[9] = physchem; remark: listed apart in the source
[10] = physchem; conditions: pH 7.4 buffer
[11] = in vitro; conditions: Beagle, dog, plasma
[12] = in vitro; conditions: Dunkin Hartley, guinea pig, plasma
[13] = in vitro; conditions: hepatocytes
[14] = in vitro; conditions: human, hepatocytes
[15] = ASTRAZENECA: Third most basic pKa value (pKa B3) determined by absorption and potentiometric titration using standard methodology from Sirius Analytical. Experimental range Bases: >= 2.; type: physicochemical; conditions: read-out: pKa_B3
[16] = physchem; remark: listed apart in the source
[17] = CD1, BC, CD1, NMRI, SCID, or Nd, rat, hepatocytes
[18] = in vitro; conditions: human
[19] = dog, plasma, 5 h

Oc1nc(-c2ccc(C(F)(F)F)cc2)nc2c1CSCC2
PPB [1]: 97.6%

Cc1ccc(-c2ccc3c(ccc4sc5c(c43)NC[C@@H](C)NC5=O)n2)cn1
PPB [2]: 98.86%
logD [3]: 3.6
fraction unbound at 5 h [4]: 0.151
fraction unbound at 5 h [5]: 0.0229

CC1(C)[C@H](NC(=O)/C(=N\OCc2cc(=O)c(O)cn2O)c2csc(N)n2)C(=O)N1OS(=O)(=O)O
PPB [1]: 69.12%
fraction unbound at 5 h [6]: 0.124

O=C(NCc1cccnc1OCC(F)(F)F)c1cncc(-c2ccc(Cl)cc2)c1
PPB [2]: 99.87%

CON=C(C(=O)N[C@@H]1C(=O)N2C(C(=O)O)=C(COC(C)=O)CS[C@H]12)c1csc(N)n1
pKa [7]: 2
pKa [8]: 3.35
pKa [9]: 9.43

Cc1ccc(S(=O)(=O)Nc2c(C(=O)N[C@@H](C)C(C)(C)C)c(C)nn2-c2ccccc2)cc1
PPB [1]: 98.89%
PPB [2]: 95.82%
logD [3]: 1.44
solubility thermodynamic [10]: 1020 µM (≈ 465 µg/mL)
fraction unbound at 5 h [11]: 0.0321
fraction unbound at 5 h [12]: 0.0818

Cc1c(Sc2ccc(Cl)cc2)c2c(NS(C)(=O)=O)cccc2n1CC(=O)O
logD [3]: 0.21
fraction unbound at 5 h [4]: 0.0104
fraction unbound at 5 h [6]: 0.0031
hepatocyte CLint [13]: 5 µL/min/1e6 cells
hepatocyte CLint [14]: 4.76 µL/min/1e6 cells
pKa [8]: 2.9
pKa [9]: 10.2

Cc1c(S(=O)(=O)c2ccc(Cl)cc2)c2c(NS(C)(=O)=O)cccc2n1CC(=O)O
logD [3]: -0.83
pKa [8]: 2.8
pKa [9]: 9.8

COc1cc2nc(-c3ccc(N4CCN(C)CC4)cc3)nc(NCCN3CCOCC3)c2cc1OC
pKa [15]: 5.6
pKa [7]: 7.93
pKa [16]: 6.78

COc1cc(-n2cnc3cc(-c4ccc(Cl)cc4)sc3c2=O)ccc1OC[C@H](O)C1CC1
PPB [2]: 98.81%
fraction unbound at 5 h [4]: 0.0021
fraction unbound at 5 h [11]: 0.0014
fraction unbound at 5 h [5]: 0.0018
hepatocyte CLint [13]: 9.77 µL/min/1e6 cells

Fc1cccc(COc2ccc(Nc3ncnc4ccc(-c5cccc(N6CCOCC6)c5)cc34)cc2Cl)c1
CLint [17]: 44.67 microL/min/1E6 cells
logD [3]: 3.2
microsomal CLint ([18]; microsomes): 63.1 µL/min/mg

CN(C)CCNc1cc(-c2ccc(N3CCN(C)CC3)cc2)nc2ccccc12
pKa [15]: 7.31
pKa [7]: 8.94
pKa [16]: 7.96

CCc1nc2cc(O)ccc2c(Oc2ccc(/C=C/C(=O)O)cc2)c1-c1ccccc1
pKa [7]: 5.51
logD [3]: 3
fraction unbound at 5 h [4]: 0.0056
pKa [8]: 4.34
pKa [9]: 7.81

NCCc1ccc(O)c(O)c1F
pKa [7]: 8
pKa [8]: 7.8
pKa [9]: 10.3

NCCc1ccc(O)c2nc(O)ccc12
pKa [7]: 7.7
pKa [8]: 7.6
pKa [9]: 10.2

O=C(NCCc1ccccc1Cl)c1cc(-n2ncc(=O)[nH]c2=O)ccc1Cl
PPB [1]: 97.2%
logD [3]: 1.29
fraction unbound at 5 h [6]: 0.0224
hepatocyte CLint [13]: 8 µL/min/1e6 cells
pKa [8]: 6.1

CC1(C)S[C@@H]2[C@H](NC(=O)[C@H](N)c3ccc(O)cc3)C(=O)N2[C@H]1C(=O)O [AMOXICILLIN]
pKa [7]: 7.52
pKa [8]: 4.03
pKa [9]: 9.77

O=C(O)CCCCCCCC(=O)O [AZELAIC ACID]
pKa [8]: 3.49
pKa [9]: 5.87

CCCCNc1cc(C(=O)O)cc(S(N)(=O)=O)c1Oc1ccccc1 [BUMETANIDE]
pKa [7]: 6.07
logD [3]: -0.3
solubility thermodynamic [10]: 1450 µM (≈ 527 µg/mL)
fraction unbound at 5 h [4]: 0.0156
fraction unbound at 5 h [6]: 0.0366
microsomal CLint ([18]; microsomes): 4 µL/min/mg
hepatocyte CLint [13]: 145 µL/min/1e6 cells
pKa [8]: 3.49
pKa [9]: 9.73

CO[C@@]1(NC(=O)CSCC#N)C(=O)N2C(C(=O)O)=C(CSc3nnnn3C)CS[C@@H]21 [CEFMETAZOLE]
fraction unbound at 5 h [4]: 0.194
pKa [8]: 3.37
pKa [9]: 10.2

NCc1ccccc1CC(=O)N[C@@H]1C(=O)N2C(C(=O)O)=C(CSc3nnnn3CC(=O)O)CS[C@H]12 [CEFORANIDE]
pKa [7]: 8.88
pKa [8]: 2.01
pKa [9]: 3.63

Cc1ccc(-c2cc(C(F)(F)F)nn2-c2ccc(S(N)(=O)=O)cc2)cc1 [CELECOXIB]
PPB [1]: 98.94%
logD [3]: 3.42
solubility thermodynamic [10]: 2.2 µM (≈ 0.839 µg/mL)
hepatocyte CLint [14]: 25.7 µL/min/1e6 cells

O=C(O)c1cc(=O)c2c(OCC(O)COc3cccc4oc(C(=O)O)cc(=O)c34)cccc2o1 [CROMOLYN]
pKa [8]: < 2
pKa [9]: < 2

COc1ccc([C@@H]2Sc3ccccc3N(CCN(C)C)C(=O)[C@@H]2OC(C)=O)cc1.Cl [DILTIAZEM HYDROCHLORIDE]
PPB [1]: 35.46%

COc1ccc([C@@H]2Sc3ccccc3N(CCN(C)C)C(=O)[C@@H]2OC(C)=O)cc1 [DILTIAZEM]
PPB [1]: 75.97%
pKa [7]: 8.08
logD [3]: 1.99
fraction unbound at 5 h [11]: 0.349
microsomal CLint ([18]; liver microsomes): 43.6 µL/min/mg
hepatocyte CLint [13]: > 150 µL/min/1e6 cells
hepatocyte CLint [14]: 9.33 µL/min/1e6 cells

CCOc1ccc(-c2ccc(Cn3c(CC(C)(C)C(=O)O)c(SC(C)(C)C)c4cc(OCc5ccc(C)cn5)ccc43)cc2)cn1 [FIBOFLAPON]
PPB [19]: 99.92%
microsomal CLint ([18]; liver microsomes): 9.77 µL/min/mg
hepatocyte CLint [13]: 6.92 µL/min/1e6 cells

COCCCC/C(=N\OCCN)c1ccc(C(F)(F)F)cc1 [FLUVOXAMINE]
PPB [1]: 75.55%

Cc1ccc(C(=O)N(CCCN)[C@@H](c2nc3cc(Cl)ccc3c(=O)n2Cc2ccccc2)C(C)C)cc1 [ISPINESIB]
PPB [1]: 99.4%

CCCc1c2nc(C(=O)O)cc(NC)c2cc2c(=O)cc(C(=O)O)oc12 [MINOCROMIL]
pKa [7]: 8.8
pKa [8]: < 2
pKa [9]: < 2

CCCc1c2oc(C(=O)O)cc(=O)c2cc2c(=O)cc(C(=O)O)n(CC)c12 [NEDOCROMIL]
pKa [8]: < 2
pKa [9]: < 2

OCCN1CCN(CCCN2c3ccccc3Sc3ccc(Cl)cc32)CC1 [PERPHENAZINE]
PPB [1]: 98.51%
fraction unbound at 5 h [6]: 0.0146

O=C(O)C[C@H](O)C[C@H](O)/C=C/c1c(C2CC2)nc2ccccc2c1-c1ccc(F)cc1 [PITAVASTATIN]
CLint [17]: 7.11 microL/min/1E6 cells
logD [3]: 0.91
fraction unbound at 5 h [4]: 0.02
fraction unbound at 5 h [6]: 0.0064
fraction unbound at 5 h [11]: 0.0293
microsomal CLint ([18]; microsomes): < 3 µL/min/mg

O=C(c1ccc(OCCN2CCCCC2)cc1)c1c(-c2ccc(O)cc2)sc2cc(O)ccc12 [RALOXIFENE]
PPB ([2]; SD, HW or BN): 99.5%
logD [3]: 4.13
solubility thermodynamic [10]: 9.1 µM (≈ 4.31 µg/mL)
fraction unbound at 5 h [4]: 0.005
fraction unbound at 5 h [11]: 0.0057
microsomal CLint ([18]; liver microsomes): 21 µL/min/mg
hepatocyte CLint [13]: 30 µL/min/1e6 cells

Nc1nc2ccc(OC(F)(F)F)cc2s1 [RILUZOLE]
PPB [1]: 97.13%

O=C(NC[C@H]1CN(c2ccc(N3CCOCC3=O)cc2)C(=O)O1)c1ccc(Cl)s1 [RIVAROXABAN]
PPB [2]: 94.56%

O=C(Nc1c(Cl)cncc1Cl)c1ccc(OC(F)F)c(OCC2CC2)c1 [ROFLUMILAST]
PPB [1]: 99.5%
logD [3]: 3.95
solubility thermodynamic [10]: 1.1 µM (≈ 0.444 µg/mL)
fraction unbound at 5 h [6]: 0.0114
microsomal CLint ([18]; microsomes): 5 µL/min/mg
hepatocyte CLint [13]: > 150 µL/min/1e6 cells

O=C(NO)c1ccccc1O [SALICYLHYDROXAMIC ACID]
microsomal CLint ([18]; liver microsomes): < 3 µL/min/mg
pKa [8]: 7.5
pKa [9]: 9.9

CSc1ccc2c(c1)N(CCC1CCCCN1C)c1ccccc1S2 (stereo not given) [THIORIDAZINE]
PPB [2]: 99.3%
logD [3]: 3.76
fraction unbound at 5 h [4]: 0.0037
microsomal CLint ([18]; microsomes): 50 µL/min/mg
hepatocyte CLint [13]: 114 µL/min/1e6 cells

N#Cc1cc(-c2n[nH]c(-c3ccncc3)n2)ccn1 [TOPIROXOSTAT]
PPB [1]: 84.9%
microsomal CLint ([18]; liver microsomes): 5 µL/min/mg
hepatocyte CLint [13]: < 3 µL/min/1e6 cells
